Data: US12559492B2, “BRAF degraders” (C4 Therapeutics, Inc., priority 2020, dated 2026)
Structures can show the parent of a compound that is named as a salt.

Target: BRAF^V600E protein (Homo sapiens, UniProt P15056, V600E)
Test: HiBiT cellular BRAF V600E degradation assay
Format: cell-based
Settings: 24 h incubation; for DC50: A375.10 cells (HiBiT tag knocked in at N-terminal of BRAF V600E), concentration at which 50% of total cellular BRAF V600E is degraded; for Emax: A375.10 cells, Emax = amount of residual protein remaining in the cell after compound treatment, read-out: HiBit 24 h Emax

BRAF^V600E protein, sequence (P15056 whole entry V600E): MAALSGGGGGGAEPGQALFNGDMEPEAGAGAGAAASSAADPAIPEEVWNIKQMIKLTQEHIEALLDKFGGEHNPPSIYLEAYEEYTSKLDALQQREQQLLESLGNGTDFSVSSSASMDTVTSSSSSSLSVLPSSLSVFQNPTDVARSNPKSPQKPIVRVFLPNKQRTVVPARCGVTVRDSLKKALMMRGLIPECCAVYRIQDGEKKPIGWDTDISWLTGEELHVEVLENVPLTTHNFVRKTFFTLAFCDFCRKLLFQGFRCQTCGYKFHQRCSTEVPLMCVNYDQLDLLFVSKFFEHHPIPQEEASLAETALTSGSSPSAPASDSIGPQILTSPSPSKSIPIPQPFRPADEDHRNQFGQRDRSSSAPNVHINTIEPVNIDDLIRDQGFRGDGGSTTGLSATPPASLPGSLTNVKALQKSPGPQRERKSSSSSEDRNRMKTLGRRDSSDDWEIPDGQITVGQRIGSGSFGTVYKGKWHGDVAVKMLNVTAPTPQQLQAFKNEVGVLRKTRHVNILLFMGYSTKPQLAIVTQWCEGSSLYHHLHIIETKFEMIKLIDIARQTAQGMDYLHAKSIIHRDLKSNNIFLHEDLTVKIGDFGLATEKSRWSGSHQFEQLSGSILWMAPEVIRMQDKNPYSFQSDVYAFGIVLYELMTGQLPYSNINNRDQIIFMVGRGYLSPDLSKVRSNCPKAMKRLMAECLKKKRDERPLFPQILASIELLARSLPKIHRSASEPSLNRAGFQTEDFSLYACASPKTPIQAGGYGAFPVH

Compound	DC50	Emax
CCN(C)S(=O)(=O)Nc1ccc(F)c(C(=O)c2c[nH]c3ncc(-c4ccc(N5CCC(NCC(=O)N6CCC(c7ccc(OC8CCC(=O)NC8=O)cc7)CC6)CC5)cc4)cc23)c1F (stereo not shown) [Example A99, 5-[4-[4-[[2-[4-[4-(2,6-Dioxopiperidin-3-yl)oxyphenyl]piperidin-1-yl]-2-oxoethyl]amino]piperidin-1-yl]phenyl]-3-[3-[[ethyl(methyl)sulfamoyl]amino]-2,6-difluorobenzoyl]-1H-pyrrolo[2,3-b]pyridine;hydrochloride]	32 nM	9%
CCN(C)S(=O)(=O)Nc1ccc(F)c(C(=O)c2c[nH]c3ncc(-c4ccc(N5CCC(N(C)CC(=O)N6CCC(c7ccc(NC8CCC(=O)NC8=O)cn7)CC6)CC5)nc4)cc23)c1F (stereo not shown) [Example A101, 5-[6-[4-[[2-[4-[5-[(2,6-Dioxopiperidin-3-yl)amino]pyridin-2-yl]piperidin-1-yl]-2-oxoethyl]-methylamino]piperidin-1-yl]pyridin-3-yl]-3-[3-[[ethyl(methyl)sulfamoyl]amino]-2,6-difluorobenzoyl]-1H-pyrrolo[2,3-b]pyridine; hydrochloride]	20 nM	19%
CCN(C)S(=O)(=O)Nc1ccc(F)c(C(=O)c2c[nH]c3ncc(-c4cnc(N5CCC(NCC(=O)N6CCC(c7ccc(OC8CCC(=O)NC8=O)cc7)CC6)CC5)nc4)cc23)c1F (stereo not shown) [Example A102, 5-[2-[4-[[2-[4-[4-(2,6-Dioxopiperidin-3-yl)oxyphenyl]piperidin-1-yl]-2-oxoethyl]amino]piperidin-1-yl]pyrimidin-5-yl]-3-[3-[[ethyl(methyl)sulfamoyl]amino]-2,6-difluorobenzoyl]-1H-pyrrolo[2,3-b]pyridine;formic acid]	33 nM	12%
O=C1CCC(Nc2ccc(CC(=O)N[C@H]3C[C@H](OC4CCN(c5ccc(-c6cnc7[nH]cc(C(=O)c8c(F)ccc(NS(=O)(=O)N9CCCC9)c8F)c7c6)cn5)CC4)C3)cc2)C(=O)N1 (stereo partly shown) [Example A105, N-[3-[1-[5-[3-[2,6-Difluoro-3-(pyrrolidin-1-ylsulfonylamino)benzoyl]-1H-pyrrolo[2,3-b]pyridin-5-yl]pyridin-2-yl]piperidin-4-yl]oxycyclobutyl]-2-[4-[(2,6-dioxopiperidin-3-yl)amino]phenyl]acetamide]	24 nM	30%
CC(C)S(=O)(=O)Nc1ccc(F)c(C(=O)c2c[nH]c3ncc(-c4ccc(N5CCN(C(=O)C6CC(N7CCC(c8ccc(NC9CCC(=O)NC9=O)cc8)CC7)C6)CC5)nc4)cc23)c1F (stereo not shown) [Example A107, N-[3-[5-[6-[4-[3-[4-[4-[(2,6-Dioxopiperidin-3-yl)amino]phenyl]piperidin-1-yl]cyclobutanecarbonyl]piperazin-1-yl]pyridin-3-yl]-1H-pyrrolo[2,3-b]pyridine-3-carbonyl]-2,4-difluorophenyl]propane-2-sulfonamide]	12 nM	12%
CC(C)S(=O)(=O)Nc1ccc(F)c(C(=O)c2c[nH]c3ncc(-c4ccc(N5CCN(C(=O)CN6CCC(c7ccc(N8CCC(=O)NC8=O)cc7)CC6)CC5)nc4)cc23)c1F [Example A108, N-[3-[5-[6-[4-[2-[4-[4-(2,4-Dioxo-1,3-diazinan-1-yl)phenyl]piperidin-1-yl]acetyl]piperazin-1-yl]pyridin-3-yl]-1H-pyrrolo[2,3-b]pyridine-3-carbonyl]-2,4-difluorophenyl]propane-2-sulfonamide]	14 nM	8%
CCN(C)S(=O)(=O)Nc1ccc(F)c(C(=O)c2c[nH]c3ncc(-c4ccc(N5CCC(NCC(=O)N6CCC(c7ccc(OC8CCC(=O)NC8=O)cc7)CC6)CC5)nc4)cc23)c1F (stereo not shown) [Example A109, 5-[6-[4-[[2-[4-[4-(2,6-Dioxopiperidin-3-yl)oxyphenyl]piperidin-1-yl]-2-oxoethyl]amino]piperidin-1-yl]pyridin-3-yl]-3-[3-[[ethyl(methyl)sulfamoyl]amino]-2,6-difluorobenzoyl]-1H-pyrrolo[2,3-b]pyridine; formic acid]	44 nM	13%
CCN(C)S(=O)(=O)Nc1ccc(F)c(C(=O)c2c[nH]c3ncc(-c4cnc(N5CCC(CC(=O)N6CCC(c7ccc(NC8CCC(=O)NC8=O)cc7)CC6)CC5)nc4)cc23)c1F (stereo not shown) [Example A112, 5-[2-[4-[2-[4-[4-[(2,6-Dioxopiperidin-3-yl)amino]phenyl]piperidin-1-yl]-2-oxoethyl]piperidin-1-yl]pyrimidin-5-yl]-3-[3-[[ethyl(methyl)sulfamoyl]amino]-2,6-difluorobenzoyl]-1H-pyrrolo[2,3-b]pyridine]	15 nM	15%
CCN(C)S(=O)(=O)Nc1ccc(F)c(C(=O)c2c[nH]c3ncc(-c4cnc(N5CCC(CC(=O)N6CCC(c7ccc(N8CCC(=O)NC8=O)cc7)CC6)CC5)nc4)cc23)c1F [Example A113, 5-[2-[4-[2-[4-[4-(2,4-Dioxo-1,3-diazinan-1-yl)phenyl]piperidin-1-yl]-2-oxoethyl]piperidin-1-yl]pyrimidin-5-yl]-3-[3-[[ethyl(methyl)sulfamoyl]amino]-2,6-difluorobenzoyl]-1H-pyrrolo[2,3-b]pyridine]	53 nM	33%
O=C1CCC(Oc2ccc(C3CCN(CC(=O)N4CC5(C4)CN(c4ccc(-c6cnc7[nH]cc(C(=O)c8c(F)ccc(NS(=O)(=O)N9CC[C@@H](F)C9)c8F)c7c6)cn4)C5)CC3)cc2)C(=O)N1 (stereo partly drawn) [Example A115, (3R)—N-[3-[5-[6-[2-[2-[4-[4-(2,6-dioxopiperidin-3-yl)oxyphenyl]piperidin-1-yl]acetyl]-2,6-diazaspiro[3.3]heptan-6-yl]pyridin-3-yl]-1H-pyrrolo[2,3-b]pyridine-3-carbonyl]-2,4-difluorophenyl]-3-fluoropyrrolidine-1-sulfonamide]	204 nM	15%
O=C1CCC(Oc2ccc(C3CCN(CC(=O)N4CC5(C4)CN(c4ccc(-c6cnc7[nH]cc(C(=O)c8c(F)ccc(NS(=O)(=O)N9CCCC9)c8F)c7c6)cc4)C5)CC3)cc2)C(=O)N1 (stereo not shown) [Example A116, N-[3-[5-[4-[2-[2-[4-[4-(2,6-Dioxopiperidin-3-yl)oxyphenyl]piperidin-1-yl]acetyl]-2,6-diazaspiro[3.3]heptan-6-yl]phenyl]-1H-pyrrolo[2,3-b]pyridine-3-carbonyl]-2,4-difluorophenyl]pyrrolidine-1-sulfonamide]	26 nM	8%
O=C(c1c(F)ccc(NS(=O)(=O)N2CCCC2)c1F)c1c[nH]c2ncc(-c3ccc(N4CC5(CN(C(=O)CN6CCC(c7ccc(NC89CC(C8)C(=O)NC9=O)cc7)CC6)C5)C4)cc3)cc12 [Example A117, N-[3-[5-[4-[2-[2-[4-[4-[(2,4-Dioxo-3-azabicyclo[3.1.1]heptan-1-yl)amino]phenyl]piperidin-1-yl]acetyl]-2,6-diazaspiro[3.3]heptan-6-yl]phenyl]-1H-pyrrolo[2,3-b]pyridine-3-carbonyl]-2,4-difluorophenyl]pyrrolidine-1-sulfonamide]	192 nM	24%

Further compounds by falling DC50, results first:

DC50	Emax	Compound
13 nM	13%	CCN(C)S(=O)(=O)Nc1ccc(F)c(C(=O)c2c[nH]c3ncc(-c4ccc(N5CCC(NCC(=O)N6CCC(c7ccc(NC8CCC(=O)NC8=O)cc7)CC6)CC5)nc4)cc23)c1F (stereo not shown) [Example A110, 5-[6-[4-[[2-[4-[4-[(2,6-Dioxopiperidin-3-yl)amino]phenyl]piperidin-1-yl]-2-oxoethyl]amino]piperidin-1-yl]pyridin-3-yl]-3-[3-[[ethyl(methyl)sulfamoyl]amino]-2,6-difluorobenzoyl]-1H-pyrrolo[2,3-b]pyridine;formic acid]
12 nM	12%	CCN(C)S(=O)(=O)Nc1ccc(F)c(C(=O)c2c[nH]c3ncc(-c4ccc(N5CCC(NCC(=O)N6CCC(c7ccc(NC8CCC(=O)NC8=O)cc7)CC6)CC5)cc4)cc23)c1F (stereo not shown) [Example A98, 5-[4-[4-[[2-[4-[4-[(2,6-Dioxopiperidin-3-yl)amino]phenyl]piperidin-1-yl]-2-oxoethyl]amino]piperidin-1-yl]phenyl]-3-[3-[[ethyl(methyl)sulfamoyl]amino]-2,6-difluorobenzoyl]-1H-pyrrolo[2,3-b]pyridine; hydrochloride]
10 nM	11%	CCN(C)S(=O)(=O)Nc1ccc(F)c(C(=O)c2c[nH]c3ncc(-c4cnc(N5CCC(NCC(=O)N6CCC(c7ccc(NC8CCC(=O)NC8=O)cc7)CC6)CC5)nc4)cc23)c1F (stereo not shown) [Example A100, 5-[2-[4-[[2-[4-[4-[(2,6-Dioxopiperidin-3-yl)amino]phenyl]piperidin-1-yl]-2-oxoethyl]amino]piperidin-1-yl]pyrimidin-5-yl]-3-[3-[[ethyl(methyl)sulfamoyl]amino]-2,6-difluorobenzoyl]-1H-pyrrolo[2,3-b]pyridine;hydrochloride]
10 nM	7%	CCN(C)S(=O)(=O)Nc1ccc(F)c(C(=O)c2c[nH]c3ncc(-c4ccc(N5CCN(C(=O)CN6CCC(c7ccc(N8CCC(=O)NC8=O)cc7)CC6)CC5)nc4)cc23)c1F [Example A104, 5-[6-[4-[2-[4-[4-(2,4-Dioxo-1,3-diazinan-1-yl)phenyl]piperidin-1-yl]acetyl]piperazin-1-yl]pyridin-3-yl]-3-[3-[[ethyl(methyl)sulfamoyl]amino]-2,6-difluorobenzoyl]-1H-pyrrolo[2,3-b]pyridine]
8.83 nM	7.68%	CCN(C)S(=O)(=O)Nc1cccc(C(=O)c2c[nH]c3ncc(-c4ccc(N5CCN(C(=O)CN6CCC(c7ccc(NC8CCC(=O)NC8=O)cc7)CC6)CC5)nc4)cc23)c1Br (stereo not shown) [Example A114, 3-[2-Bromo-3-[[ethyl(methyl)sulfamoyl]amino]benzoyl]-5-[6-[4-[2-[4-[4-[(2,6-dioxopiperidin-3-yl)amino]phenyl]piperidin-1-yl]acetyl]piperazin-1-yl]pyridin-3-yl]-1H-pyrrolo[2,3-b]pyridine]
